Assay results from US12297296B2, “Nano small peptide and its use in preparation of drugs for treating and preventing fundus vascular diseases” (FUTU Biotech Co., Ltd., priority 2021, dated 2025).
Where a SMILES comes first, the peptide text is derived from it. [ ]: non-standard residue; d: D form. The star is where a group is joined. ξ: configuration not given here. Palmitoyl = CCCCCCCCCCCCCCCC(=O)*; ξF = NC(Cc1ccccc1)C(=O)O

How the values were obtained:
[1] = biological target: T1, sSema4D (Mus musculus, UniProt O09126); test: CD spectra of nanoparticles before and after induction by sSema4D protein; type: physicochemical; design: the free Sema4D protein after enzyme cleavage of Sema4D, that is, the sSema4D protein purchased from R&D Systems Company; purchased R&D Systems; conditions: 20 μM; for CD secondary structure before induction by sSema4D protein: H2O containing 0.5% dimethyl sulfoxide, signal at 200 nm negative; for CD secondary structure after induction by sSema4D protein: signal at 200 nm positive, negative signal at 220 nm
T1 sequence (O09126 24-733 limits assumed): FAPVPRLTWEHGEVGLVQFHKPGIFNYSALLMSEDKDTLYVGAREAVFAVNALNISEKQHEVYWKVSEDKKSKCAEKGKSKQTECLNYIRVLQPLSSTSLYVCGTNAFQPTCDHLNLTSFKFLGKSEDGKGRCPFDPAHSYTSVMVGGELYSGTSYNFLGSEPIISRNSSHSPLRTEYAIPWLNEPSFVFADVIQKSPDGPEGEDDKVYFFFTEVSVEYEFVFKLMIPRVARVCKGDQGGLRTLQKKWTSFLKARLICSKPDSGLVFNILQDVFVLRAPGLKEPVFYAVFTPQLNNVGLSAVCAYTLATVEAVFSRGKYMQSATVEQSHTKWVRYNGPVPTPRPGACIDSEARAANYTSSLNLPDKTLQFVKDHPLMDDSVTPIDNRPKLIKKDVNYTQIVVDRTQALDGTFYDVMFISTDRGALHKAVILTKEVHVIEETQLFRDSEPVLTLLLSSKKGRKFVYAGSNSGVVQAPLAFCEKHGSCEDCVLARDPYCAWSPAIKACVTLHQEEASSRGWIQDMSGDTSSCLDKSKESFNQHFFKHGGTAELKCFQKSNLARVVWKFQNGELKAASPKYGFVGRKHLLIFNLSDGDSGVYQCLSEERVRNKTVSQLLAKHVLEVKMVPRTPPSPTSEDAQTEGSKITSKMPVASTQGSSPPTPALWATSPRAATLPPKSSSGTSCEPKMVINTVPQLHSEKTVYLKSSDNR
Protocol: First, FG and FH nanoparticle solutions with a concentration of 20 μM were prepared as follows. 0.01 mmol of FG (or FH) was weighed and dissolved in 1 mL of DMSO solution, and then diluted into 5 folds to a concentration of 2 mM, thus obtaining mother solution A. 10 μL of mother solution A was quickly added to 1 mL of water, and the resulting solution was then vortexed for 30 s to obtain a nanoparticle solution. Second, samples were made. 10 ul of FG (or FH) solution was added dropwise onto a copper mesh for 5 min, and the excess solution was removed with filter paper. 10 μL of uranyl acetate stain was added dropwise for 5 min, and the excess stain was removed with filter paper. Washing with 10 μl of deionized water was carried out once. The samples were dried in vacuum overnight. Finally, transmission electron microscopy observations were performed on an HT-7700 transmission electron microscope (Hitachi, Tokyo, Japan). Scale bar was 200 nm.
The CD spectra of FH and FG nanoparticles (20 μM) were collected at room temperature using a CD spectrometer (JASCO-1500, Tokyo, Japan) with an optical path length of 1 mm. Measurements were performed between 190 nm and 300 nm with a resolution of 1.0 nm at a scan speed of 300 nm/min. For each measurement, three spectra were collected and averaged.

[2] = biological target: T1, sSema4D; test: sSema4D concentration in endothelial cell culture supernatant (ELISA); type: cell-based; design: the free Sema4D protein after enzyme cleavage of Sema4D, that is, the sSema4D protein purchased from R&D Systems Company; purchased R&D Systems; conditions: endothelial cells; for sSema4D concentration over the time course: 20 μM, 12, 24, 36, and 48 h; for sSema4D concentration: sSema4D 1600 ng/mL, peptide 20 μM, antibody 2 μg/μL
Protocol: Endothelial cells were uniformly seeded in 6-well cell culture plates and cultured in a 5% CO2 incubator at 37° C. for 24 h. The nano small peptides FH, FG, DMSO, and Sema4D neutralizing antibody (BMA-12) were added to the medium (the concentration of sSema4D in the medium was 1600 ng/mL) to ensure that the final concentration of FH and FG was 20 μM, and the final concentration of the sSema4D neutralizing antibody (BMA-12) was 2 μg/μL, an equal volume of DMSO was then added as a control, and the culture plates were cultured in an incubator for 12, 24, 36, and 48 h, respectively. The cell culture medium was then collected and centrifuged. The supernatant was taken and the expression of Sema4D protein in the supernatant was detected using an ELISA kit (Shanghai Yuanmu Biotechnology Co., Ltd.).

[3] = test system: endothelial cells (primary endothelial cells of mouse brain microvessels); test: CCK8 cytotoxicity assay; type: cell-based; conditions: 20 μM; 12, 14, and 36 h
[4] = test system: primary mouse brain microvascular pericytes; test: Pericyte migration (transwell experiment); type: cell-based; conditions: 20 μM, 36 h; for sSema4D-induced pericyte migration: sSema4D 1600 ng/mL
Protocol: The primary mouse brain microvascular pericytes were starved with 0.5% PM for 4 to 6 h. The pericytes were seeded in the upper layer of a 24-well transwell chamber (8 μm). The medium containing FH (20 μM), FG (20 μM), and Sema4D neutralizing antibody (BMA-12) (2 μg/μL) (the concentration of sSema4D in the medium is 1600 ng/mL) was added to the lower chamber, and an equal volume of DMSO was added as control. The cells were incubated in a 5% CO2 incubator at 37° C. for 36 h. 36 h later, the cells on the bottom of the chamber were fixed with 4% paraformaldehyde and stained with crystal violet, and the pericytes that penetrated to the bottom of the chamber were counted under a microscope.

[5] = biological target: T1, sSema4D; test: sSema4D concentration in a simple medium system (ELISA); type: biochemical; design: the free Sema4D protein after enzyme cleavage of Sema4D, that is, the sSema4D protein purchased from R&D Systems Company; purchased R&D Systems; conditions: for sSema4D concentration: sSema4D 1600 ng/mL, peptides 20 μM, antibody 2 μg/μL
Protocol: The nano small peptides FH, FG, DMSO, and Sema4D neutralizing antibody (BMA-12) were added to the medium (the concentration of sSema4D in the medium was 1600 ng/mL) to ensure that the final concentration of FH and FG was 20 μM, and the final concentration of the Sema4D neutralizing antibody (BMA-12) (BMA-12, i.e., anti-Sema4D) was 2 μg/μL, an equal volume of DMSO was then added as a control, and culture plates were set still at 37° C. for 12, 24, 36, and 48 h, and the culture medium was collected, and the expression of Sema4D protein in the supernatant was detected using an ELISA kit (Shanghai Yuanmu Biotechnology Co., Ltd.).

| CD secondary structure before induction by sSema4D protein [1] | CD secondary structure after induction by sSema4D protein [1] | sSema4D concentration ([2]; 24 h) | effect on sSema4D concentration compared with FG ([2]; within the same action time) | sSema4D concentration ([5]; 24 h) | effect on sSema4D concentration compared with FG ([5]; within the same action time) | SMILES | sSema4D concentration over the time course [2] | sSema4D concentration ([2]; 36 h) | toxic effects on endothelial cells [3] | inhibition of pericyte migration compared with Sema4D neutralizing antibody (BMA-12, 2 μg/μL) [4] | sSema4D-induced pericyte migration [4] | sSema4D concentration ([5]; 36 h) |
| --- | --- | --- | --- | --- | --- | --- | --- | --- | --- | --- | --- | --- |
| random coil structure | transition to a β-sheet folded structure | can reduce the sSema4D concentration | better than that of FG | can reduce the sSema4D concentration | better than that of FG | CCCCCCCCCCCCCCCC(=O)NC(Cc1ccccc1)C(=O)N[C@@H](Cc1ccccc1)C(=O)N[C@H](C(=O)N[C@@H](CC(C)C)C(=O)N[C@@H](CCCCN)C(=O)N[C@@H](CCCCN)C(=O)N[C@@H](CCC(N)=O)C(=O)N[C@@H](CCCCN)C(=O)N[C@@H](CCCNC(=N)N)C(=O)N1CCC[C@H]1C(=O)N[C@@H](CCCNC(=N)N)C(=O)N[C@@H](Cc1c[nH]cn1)C(=O)O)C(C)C (stereo in doubt) [FH, hexadecanoyl-FFVLK-KQKRPRH] | can sustainably reduce the concentration of sSema4D | can still reduce the sSema4D concentration | did not cause toxic effects | more effective | significantly inhibit | can still reduce the sSema4D concentration |
| random coil structure | transition to a β-sheet folded structure | – | – | can reduce the sSema4D concentration | – | CCCCCCCCCCCCCCCC(=O)NC(Cc1ccccc1)C(=O)N[C@@H](Cc1ccccc1)C(=O)N[C@H](C(=O)N[C@@H](CC(C)C)C(=O)N[C@@H](CCCCN)C(=O)N[C@@H](CCCCN)C(=O)N[C@@H](CC(N)=O)C(=O)N[C@@H](CCCCN)C(=O)N[C@@H](C)C(=O)N[C@@H](C)C(=O)N[C@@H](CCCCN)C(=O)NCC(=O)O)C(C)C (stereo partly shown) [FG] (Palmitoyl-[ξF]FVLKKNKAAKG-OH) | can sustainably reduce the concentration of sSema4D | – | did not cause toxic effects | – | significantly inhibit | can still reduce the sSema4D concentration |
